The source of these data is ChEMBL document CHEMBL1126457, “Synthesis of novel targeted pro-prodrugs of anthracyclines potentially activated by a monoclonal antibody galactosidase conjugate (part 1)” (1992).

Structures are written as SMILES.

The assay relates to L1210. Description: Compound was evaluated for cytotoxicity against L1210 murine leukemia cells. In kind it is functional, Mus musculus.

As to `COc1cccc2c1C(=O)c1c(O)c3c(c(O)c1C2=O)C[C@@](O)(C(C)=O)C[C@@H]3O[C@H]1C[C@@H](NC(=O)OCc2ccc(O[C@H]3O[C@@H](CO)[C@H](O)[C@H](O)[C@@H]3O)cc2)[C@H](O)[C@H](C)O1`, the Cytotoxicity is >1 µg/mL.
Take `COc1cccc2c1C(=O)c1c(O)c3c(c(O)c1C2=O)C[C@@](O)(C(C)=O)C[C@@H]3O[C@H]1C[C@@H](NC(=O)OCc2ccccc2O[C@H]2O[C@@H](CO)[C@H](O)[C@H](O)[C@@H]2O)[C@H](O)[C@H](C)O1`: the Cytotoxicity was >1 µg/mL.
`COc1cccc2c1C(=O)c1c(O)c3c(c(O)c1C2=O)C[C@@](O)(C(C)=O)C[C@@H]3O[C@H]1C[C@H](N)[C@H](O)[C@H](C)O1` [DAUNORUBICIN] displayed a Cytotoxicity of 0.02 µg/mL.
